Measured values reported in patent US20030161893A1, “PTPase inhibitors and methods of using the same” (priority 2001, published 2003).

How the values were obtained:
PRL-3 = target: T1, PRL-3 (Homo sapiens, UniProt O75365); assay: In vitro PTPase assay, recombinant PRL-3; format: biochemical; conditions: 0.1-100 μg/ml
T1 construct: cDNAs of human PRL-1, PRL-2 and PRL-3 coding region were derived by RT-PCR from H9 cells; made in house; host or cells: DH5a bacteria (E. coli)
Text: Sodium stibogluconate, suramin, sodium orth ovanadate and GST fusion protein of SHP-1 have been described previously (Pathak et al., J. Imumol. 167, 3391 (2001)). Meglumine antimonate was obtained from Aventis. cDNAs of human PRL-1, PRL-2 and PRL-3 coding region were derived by RT-PCR from H9 cells (Safai, et al., Lancet 1, 1438 (1984)) and inserted in frame into the pGEX vector. cDNA of PRL-1R86 was generated by recombinant DNA technique using PRL-1 cDNA as template following established procedures (Jiao, et al., Mol. Cell. Biol. 16, 6985 (1996)). GST fusion proteins of the PRL phosphatases were prepared from DH5a bacteria transformed with the pGEX fusion protein constructs as described previously (Yi, et al., Mol. Cell. Biol. 12, 836 (1992)). cDNAs encoding the PRLs tagged at the N-termini with the Flag epitope (Castrucci, et al., J. Virol. 66, 4647 (1992)) were generated via recombinant DNA technique, sequenced to confirm their identities and cloned into the pBabepuro vector (Yang, et al., Blood 91, 3746 (1998)). Anti-Flag monoclonal antibody (M2, Sigma) was purchased from a commercial source. A synthetic phosphotyrosine peptide (Arg-Arg-Leu-Ile-Glu-Asp-Ala-Gle-Tyr-Ala-Ala-Arg-Gly (SEQ ID NO: 3), wherein the tyrosine is phosphorylated; UBI) and DiFMUP (6, 8-difluoro-4-methylumbelliferyl phosphate, Molecular Probes) were purchased as substrates for PTPase assays.
In vitro PTPase assays were used to determine the effects of compounds on recombinant PTPases, following established procedures using a synthetic phosphotyrosine peptide or DiFMUP as the substrate (Pathak et al., J. Imumol. 167, 3391 (2001)). Briefly, individual PTPases (0.1 μg/reaction) in 50 μL of PTPase buffer (50 mM Tris, pH 7.4) were incubated at 22° C. for 10 minutes or as indicated in the absence or presence of inhibitory compounds. Substrates (0.2 mM phosphotyrosine peptide) were then added and allowed to react at 22° C. for 18 hrs. PTPase activity of individual reactions was measured by adding 100 μL of malachite green solution (UBI) and then quantifying the amounts of free phosphate cleaved by the PTPase from the peptide substrate by spectrometry (OD660 nm). PTPase assays using DiFMUP as a substrate were conducted following a previously described procedure (Matter, et al., Biochem. Biophys. Res. Comm. 283, 1061 (2001)). Relative PTPase activities were calculated based on the formula: (PTPase activity in the presence of an inhibitory compound/PTPase activity in the absence of the compound)×100%. To assess the reversibility of PTPase inhibition, GST fusion proteins of the PTPases bound on glutathione beads (Pharmacia) were pre-incubated with cold Tris buffer (50 mM Tris, pH 7.0) or Tris buffer containing the inhibitor at 4° C. for 30 minutes. The beads were then washed three times in cold Tris buffer or not washed prior to subjecting to in vitro PTPase assays.

PRL-1 = target: T2, PRL-1 (Homo sapiens, UniProt Q93096); assay: In vitro PTPase assay, recombinant PRL-1; format: biochemical; conditions: 0.1-100 μg/ml
T2 construct: cDNAs of human PRL-1, PRL-2 and PRL-3 coding region were derived by RT-PCR from H9 cells; made in house; host or cells: DH5a bacteria (E. coli)
Text: (§1) Sodium stibogluconate, suramin, sodium orth ovanadate and GST fusion protein of SHP-1 have been described previously (Pathak et al., J. Imumol. 167, 3391 (2001)). Meglumine antimonate was obtained from Aventis. cDNAs of human PRL-1, PRL-2 and PRL-3 coding region were derived by RT-PCR from H9 cells (Safai, et al., Lancet 1, 1438 (1984)) and inserted in frame into the pGEX vector. cDNA of PRL-1R86 was generated by recombinant DNA technique using PRL-1 cDNA as template following established procedures (Jiao, et al., Mol. Cell. Biol. 16, 6985 (1996)). […]
(§2) In vitro PTPase assays were used to determine the effects of compounds on recombinant PTPases, following established procedures using a synthetic phosphotyrosine peptide or DiFMUP as the substrate (Pathak et al., J. Imumol. 167, 3391 (2001)). […] PTPase activity of individual reactions was measured by adding 100 μL of malachite green solution (UBI) and then quantifying the amounts of free phosphate cleaved by the PTPase from the peptide substrate by spectrometry (OD660 nm). […] Relative PTPase activities were calculated based on the formula: (PTPase activity in the presence of an inhibitory compound/PTPase activity in the absence of the compound)×100%. […]

WM9 cells = assay: Cell proliferation assay (MTT), WM9 melanoma cells; format: cell-based, human
Method: For cell proliferation assays, cells were grown in 10% FCS culture medium containing various amounts of IFNs and/or sodium stibogluconate in 96 well plates and cultured at 37° C. for 3 or 6 days as indicated. The numbers of viable cells in proliferation assays were determined by MTT assays as described in Phatak et al., J. Immunol. 167, 3391 (2001).
Dose response curves were generated for each drug alone, and also the combinations. Median effect plots were generated for IFNs alone, sodium stibogluconate alone, and the combination. The combination index (CI) was determined and plotted vs. fraction affected (FA). Data were analyzed in both modes, mutually exclusive and mutually nonexclusive. The interaction between two mutually nonexclusive drugs is described by the Equation CI=D1/D×1+D2/D×2+D1D2/D×1D×2, where D×1 and D×2 are the doses of drug 1 and drug 2 that are required to inhibit growth×%. […] When CI<1, drugs are synergistic, when CI=1, drugs are additive, and when CI>1, drugs are antagonistic.

PRL-2 = target: T3, PRL-2 (Homo sapiens, UniProt Q12974); assay: In vitro PTPase assay, recombinant PRL-2; format: biochemical
T3 construct: cDNAs of human PRL-1, PRL-2 and PRL-3 coding region were derived by RT-PCR from H9 cells; made in house; host or cells: DH5a bacteria (E. coli)
Text: as §1, §2

GSTm8 = assay: In vitro PTPase assay, GSTm8; format: biochemical; conditions: 3-4 μg/ml or 10-100 μg/ml
SHP-1 = target: T4, SHP-1 (Mus musculus, UniProt P29351); assay: In vitro PTPase assay, GST/SHP-1 fusion protein; format: biochemical; conditions: 3-4 μg/ml or 10-100 μg/ml
T4 construct: made in house
Method: In vitro PTPase activities were measured using the commercial protein tyrosine phosphatase assay kit (Upstate Biotechnology, Inc. (“UBI”)) following established procedure known to one of skill in the art. […] 100 μl of Malachite Green solution was added and incubated for 5 minutes, and the absorbance at 660 nm was measured after 5 minutes.
The beads were then either subjected to in vitro PTPase assays or washed 3 times in Tris buffer then subjected to in vitro PTPase assays.
Briefly, individual PTPases (0.1 μg/reaction) in 50 μL of PTPase buffer (50 mM Tris, pH 7.4) were incubated at 22° C. for 10 minutes or as indicated in the absence or presence of inhibitory compounds. […] […] […] Relative PTPase activities were calculated based on the formula: (PTPase activity in the presence of an inhibitory compound/PTPase activity in the absence of the compound)×100%. To assess the reversibility of PTPase inhibition, GST fusion proteins of the PTPases bound on glutathione beads (Pharmacia) were pre-incubated with cold Tris buffer (50 mM Tris, pH 7.0) or Tris buffer containing the inhibitor at 4° C. for 30 minutes. The beads were then washed three times in cold Tris buffer or not washed prior to subjecting to in vitro PTPase assays.

MKP1 = target: T5, MKP1 (Homo sapiens, UniProt P28562); assay: In vitro PTPase assay, GST/MKP1 fusion protein; format: biochemical
T5 construct: a pGEX construct containing the coding region of MKP1 cDNA derived by RT-PCR; made in house; host or cells: DH5a bacteria (E. coli)
T5 sequence (P28562 1-367): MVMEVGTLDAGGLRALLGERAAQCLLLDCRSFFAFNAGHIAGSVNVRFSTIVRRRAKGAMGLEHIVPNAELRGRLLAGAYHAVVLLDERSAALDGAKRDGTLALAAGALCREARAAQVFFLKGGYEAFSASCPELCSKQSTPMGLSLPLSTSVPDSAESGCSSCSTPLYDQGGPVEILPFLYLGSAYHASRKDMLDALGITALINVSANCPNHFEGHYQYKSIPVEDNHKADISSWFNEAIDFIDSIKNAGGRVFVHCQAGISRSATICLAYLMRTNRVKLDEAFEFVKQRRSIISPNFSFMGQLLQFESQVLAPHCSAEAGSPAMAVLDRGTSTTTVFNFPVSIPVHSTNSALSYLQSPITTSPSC

HL-60 cells = assay: HL-60 cell differentiation (NBT reduction); format: cell-based, human; conditions: GM-CSF 25 ng/ml alone, day 6
Method: (§3) Differentiation of AML cell lines was assessed by their ability to produce superoxide as measured by reduction of NBT to formazan and by analysis of expression of CD11b surface marker by flow cytometry. For NBT reduction, each cell suspension was mixed with an equal volume of solution containing 1 mg/ml of NBT (Sigma) and 2.5 μg/ml of TPA for 30 minutes at 37° C. After incubation, cells containing the purple formazan deposits and cells devoid of NBT-reducing activity (white cells) in each sample were determined by counting 200 cells under microscope. Data is expressed as a percentage based on the following ratio: purple cells/purple+white cells. For analysis of cell surface antigens, cells were exposed to phycoerythrin (PE)-conjugated murine anti-human CD11b (DAKO Corp., Carpinteria, Calif.). Analysis of fluorescence was performed on a FACScan flow cytometer (Beckton Dickinson, Mountain View, Calif.).

U937 cells = assay: U937 cell differentiation (NBT reduction); format: cell-based, human; conditions: GM-CSF 25 ng/ml alone, day 6
Method: as §3

NB4 cells = assay: NB4 cell differentiation (NBT reduction, CD11b); format: cell-based, human
Method: as §3

T4 sequence (P29351 whole entry, the tested form may be a part): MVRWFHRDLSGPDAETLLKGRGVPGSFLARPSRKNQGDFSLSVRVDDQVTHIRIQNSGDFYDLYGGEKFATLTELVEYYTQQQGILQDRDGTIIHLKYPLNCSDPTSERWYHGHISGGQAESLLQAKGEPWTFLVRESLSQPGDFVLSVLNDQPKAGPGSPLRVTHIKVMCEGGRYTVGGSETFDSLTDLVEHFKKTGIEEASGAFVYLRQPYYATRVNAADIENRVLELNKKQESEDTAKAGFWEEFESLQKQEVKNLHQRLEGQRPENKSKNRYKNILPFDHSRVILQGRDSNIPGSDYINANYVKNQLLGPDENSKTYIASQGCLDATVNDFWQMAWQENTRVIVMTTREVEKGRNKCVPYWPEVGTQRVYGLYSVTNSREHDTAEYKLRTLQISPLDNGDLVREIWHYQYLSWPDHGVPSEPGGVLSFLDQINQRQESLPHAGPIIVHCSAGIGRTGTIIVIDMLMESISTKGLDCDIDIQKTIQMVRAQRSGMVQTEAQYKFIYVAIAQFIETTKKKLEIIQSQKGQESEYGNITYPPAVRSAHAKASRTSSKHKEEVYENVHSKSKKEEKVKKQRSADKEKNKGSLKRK
T1 sequence (O75365 whole entry): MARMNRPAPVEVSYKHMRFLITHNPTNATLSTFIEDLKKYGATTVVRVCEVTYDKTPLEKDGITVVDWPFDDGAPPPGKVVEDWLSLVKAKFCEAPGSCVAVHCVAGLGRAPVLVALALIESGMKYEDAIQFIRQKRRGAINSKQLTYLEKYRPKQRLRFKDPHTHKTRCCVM
T3 sequence (Q12974 whole entry): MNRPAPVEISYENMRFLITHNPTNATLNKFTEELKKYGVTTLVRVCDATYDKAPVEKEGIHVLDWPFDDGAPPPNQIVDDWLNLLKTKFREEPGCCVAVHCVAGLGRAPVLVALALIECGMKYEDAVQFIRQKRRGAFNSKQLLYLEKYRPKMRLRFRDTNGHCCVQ
T2 sequence (Q93096 whole entry): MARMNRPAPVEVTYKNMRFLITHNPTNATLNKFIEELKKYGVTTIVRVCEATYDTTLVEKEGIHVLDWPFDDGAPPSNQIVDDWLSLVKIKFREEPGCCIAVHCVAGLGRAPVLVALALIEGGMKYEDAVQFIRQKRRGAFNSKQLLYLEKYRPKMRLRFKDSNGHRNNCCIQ

Compound | remaining PRL-3 PTPase activity (PRL-3) | retained PRL-1 PTPase activity (PRL-1) | inhibition at 40 µg/mL (WM9 cells; Homo sapiens, WM9, 144 h, read-out: growth inhibition of WM9 cells, single agent) | effect on IFN-alpha activity in WM9 (WM9 cells; ketoconazole 40 μg/ml) | activity against WM9 cells, single agent or with IFN-alpha (WM9 cells; ketoconazole 0.625-20 μg/ml, 6 days) | effectiveness against PRL-2 (PRL-2) | inhibitory activity against GSTm8 (GSTm8) | inhibitory activity against SHP-1 (SHP-1) | inhibition of MKP1 (MKP1) | growth inhibition of WM9 cells, single agent (WM9 cells; pentamidine 2.5-5 μg/ml, 6 days) | effect on IFN-alpha-induced growth inhibition of WM9 (WM9 cells; pentamidine, most obviously at 0.625-1.25 μg/ml) | maximal increase of NBT-positive HL-60 cells (HL-60 cells) | maximal increase of NBT-positive U937 cells (U937 cells) | effect on NB4 cell differentiation (NB4 cells; GM-CSF alone) | augmentation of sodium stibogluconate-induced NB4 differentiation (NB4 cells; GM-CSF with sodium stibogluconate)
CC(=O)N1CCN(c2ccc(OCC3COC(Cn4ccnc4)(c4ccc(Cl)cc4Cl)O3)cc2)CC1 (centres unmarked) [ketoconazole] | 25-40% | 60-70% | 67% | minor augmenting effect | no apparent activity | not effective | no obvious inhibitory activity | no obvious inhibitory activity | – | – | – | – | – | – | –
N=C(N)c1ccc(OCCCCCOc2ccc(C(=N)N)cc2)cc1 [pentamidine] | 20-30% | 70-80% | – | – | – | not effective | no obvious inhibitory activity | no obvious inhibitory activity | substantial inhibition | 86-97% | augmented IFN-alpha-induced growth inhibition | – | – | – | –
GM-CSF: recombinant human granulocyte/macrophage colony stimulating factor | – | – | – | – | – | – | – | – | – | – | – | 8-10% | 8-10% | no detectable effect | failed to augment
